Series [1] concerns Isolated guinea pig trachea. Nature of the series: Isolated guinea pig trachea relaxation (spontaneous tonus, organ bath). Conditions: Cavia porcellus; 50% relaxation of spontaneous tonus; relaxation by 1 mcM isoprenaline = 100%; read-out: Guinea pig trachea EC₅₀. The format is cell-based. On the procedure: This in vitro test was carried out according to the method of Emmerson and Mackay (J. Pharm. Pharmacol. 1979, 31, 798). The trachea was excised from guinea pigs, placed in Krebs Henseleit's solution at 37°C and gassed with 95% O₂ and 5% CO₂. The trachea strip was mounted in an organ bath and attached to a tension transducer preloaded with […]. Test compounds were cumulatively added to the organ bath and concentrations causing 50% relaxation of the spontaneous tonus of the tracheal tissue (EC₅₀) were calculated (Table 1). The relaxation induced by 1 mcM isoprenaline was taken as 100%.

For series [2], the system named is rat peritoneal mast cell preparations. Description: Histamine release induced by compound 48/80 in rat mast cell preparations. The format is cell-based. Conditions: 20 min, 1 mM test compound, compound 48/80 10⁻⁶ M, 37°C, read-out: Histamine release % inhib. at 1 mM. The protocol:
Anaesthetized rats were bled by cardiac puncture and then 10 mL of Tyrode's-gel solution (0.1% gelatine in Tyrode's buffer, pH 7.2) containing 50 mcg heparin was injected into the peritoneal cavity. Alter a gentle massage of the abdomen, the peritoneal cell suspension was harvested. Mast cells were suspended in Tyrode's solution (10⁶ cells/mL). Aliquots of 0.2 mL of the mast cell suspension were incubated at 37°C for 20 minutes with 10 mcL of compound 48/80 (10⁻⁶ M final concentration), a potent histamine release inducer. The reaction was stopped by introducing the tubes in a ice-ethanol bath. The cells were sedi-mented by centrifugation and the histamine in the supernatant was determined by the fluorimetric method of May (J. Allergy, 1970, 46, 12). The sedimented pellets were treated with 0.1 N HCl at 100°C to liberate the non-released histamine and to determine it by the same method of May. Test compounds were added to the incubation medium dissolved in Tyrode's buffer at different concentrations (final volume: 1 mL). Control samples contained the same volume of Tyrode's buffer. The histamine release in the control samples was taken as 100%, and the percentage of the histamine release inhibition of test samples was calculated with respect to controls. (Table 3).

In series [3] the test system is Histamine-induced bronchospasm in anaesthetized guinea pigs. Nature of the series: Histamine-induced bronchospasm in anaesthetized guinea pigs (Konzett and Rössler). Conditions: histamine 10 mcg/Kg i.v., test compound i.p., maximum inhibitory effect at 10, 30, 60 min. The format is in vivo. The protocol:
This test was performed in anaesthetized animals according to the method of Konzett and Rössler (Arch. Exp. Pathol.Pharmacol. 1940, 195, 71). The activity was determined by calculating the dose of the active compound required to produce 50% inhibition of the bronchospasm (ID₅₀) (Table 1). Histamine was given intravenously at 10 mcg/Kg, before and 10, 30 and 60 minutes after intraperitoneal administration of test compounds. Maximum inhibitory effects were taken for calculation of ID₅₀ values.

The test system of series [4] is Passive cutaneous anaphylaxis reaction (PCA). Description: Passive cutaneous anaphylaxis reaction (PCA) in the rat. Type of series: in vivo. Conditions: 30 minutes before egg albumin and Evans' blue challenge. The protocol:
The animals were passively sensitized by intradermal injection of 0.1 mL of five-fold diluted rat reagenic antiserum. Injections were made at 4 locations on the shaved back skin and 48 h later the test drug was administered intraperitoneally. Thirty minutes later, the animals were challenged by intravenous injection of egg albumin and Evans' blue dye. The dermal reaction was measured colorimetrically by the method of Harata (J.Pharm.Pharmac., 1971, 23, 218) as the extent of the blueing reaction at the sensitized intradermal injection site, and the percent inhibition values with respect to controls were calculated (Table 3).

Series [5] relates to Histamine aerosol-induced bronchospasm. Description: Histamine aerosol-induced bronchospasm in conscious guinea pigs (protection from death). Type of series: in vivo. Conditions: for Histamine bronchospasm Hist. aerosol PC₅₀ (inhal) / Histamine bronchospasm Hist. aerosol PD₅₀ (oral): conscious guinea pigs; for Histamine bronchospasm Hist. aerosol PC₅₀ (inhal): ethanolic solution nebulized 1 mL/min for 2 min, histamine challenge 3 min later, concentration protecting 50% from lethality; for Histamine bronchospasm Hist. aerosol PD₅₀ (oral): one hour before histamine aerosol (0.2%), dose protecting 50% of animals from death; for Protection from death % / Protection from death n/N: formulation B by inhalation; for Protection from death n/N: survivors versus total number of animals. On the procedure: This test is based on the methods of Van P+roosdif-Hartzema (Inter. Ppharmacodynamic 1958, 115, 322) and Loew (J. Pharmac.Exp.Ther. 1945, 83, 120) with slight modifications. Thus, conscious guinea pigs were subjected to inhalation of histamine (0.2% aqueous solution) nebulized by an ultrasonic device (DeVilvis™, Ultra-Neb 99) during 30 seconds in a cylindric plastic chamber of 15 liters of volume, at a rate of 1 mL/min. Test compounds were given orally, one hour before the challenge of histamine, and the dose needed to protect from death 50% of the animals was determined (PD₅₀) (Table 1).
Using the same model, test compounds were also given by inhalation. They were dissolved in ethanol at different concentrations (0.45 mM to 28mM) and aerosolized by the ultrasonic nebulizer mentioned above at a rate of 1 mL/min, during 2 minutes. Three minutes later, the animals were subjected to the challenge of histamine and PC₅₀ values were determined (Table 1). Controls were subjected to inhalation of the vehicle (ethanol). PC₅₀ value is defined as the concentration of test compound in the ethanolic solution that protects 50% of animals from lethality when nebulized as indicated above.
Finally, studies have been made subjecting the animals to inhalation of one or more puffs of 5 mg/mL of 1,3-diisobutyl-8-methylxanthine (UR-6032) solution formulation B (see Example 1). Animals were forced to inhale UR-6032 for 5 minutes into the cylindric plastic chamber before the challenge with ultrasonic nebulized histamine (see above) and protection from death with respect to controls was determined (Table 2).

Series [6] relates to Egg albumin-induced bronchospasm in sensitized guinea pigs. Nature of the series: Egg albumin-induced bronchospasm in sensitized guinea pigs (Konzett and Rössler). The format is in vivo. Conditions: egg albumin 0.06% w/v, 1 mL/Kg i.v., one minute after test compound. On the procedure: The experimental procedure of Konzett and Rössler was followed (Arch. Exp. Pathol.Pharmacol. 1940, 195, 71). A single intravenous injection of 1 mL/Kg of egg albumin (0.06%, w/v) was given to sensitized animals one minute after intravenous administration of UR-6032 at different concentrations.

Series [7] is described as follows: Acute oral toxicity in rats. Type of series: in vivo. Conditions: both sexes rats.

Structures are written as SMILES.

`CC(C)Cn1c(=O)n(C)c(=O)c2[nH]cnc21` [IBMX, 1-methyl-3-isobutylxanthine]: the EC50 in series [1] is 1100 nM. Besides, the inhibition at 1000 µM in series [2] came out at 37%. Moreover, the “Histamine bronchospasm Hist. i.v. ID₅₀” value in series [3] was 2.50 mg/Kg,i.p. For the same molecule, in series [4], the “PCA % inhibition at 2.5 mg/Kg,i.p.” value was 86%. For the same molecule, in series [5], the “Histamine bronchospasm Hist. aerosol PC₅₀ (inhal)” value is given as “^b 15-20 mM”.
In the case of `Cn1c(=O)c2[nH]cnc2n(C)c1=O` [Theophylline, 1,3-dimethylxanthine], in series [1], the EC50 was determined as 31000 nM. In addition, in series [2], the inhibition at 1000 µM was 25%. The “Histamine bronchospasm Hist. i.v. ID₅₀” value in series [3] is given as 4.90 mg/Kg,i.p. Besides, the “PCA % inhibition at 2.5 mg/Kg,i.p.” value in series [4] is given as 8%. Also, in series [5], the “Histamine bronchospasm Hist. aerosol PC₅₀ (inhal)” value is listed as 25 mM and the “Histamine bronchospasm Hist. aerosol PD₅₀ (oral)” value was greater than 100 mg/kg.
Turning to `Cc1nc2c([nH]1)c(=O)n(CC(C)C)c(=O)n2CC(C)C` [UR-6032, 1,3-diisobutyl-8-methylxanthine], in series [1], the EC50 is 100 nM. For the same molecule, the inhibition at 1000 µM in series [2] was determined as 56%. Further, the “Histamine bronchospasm Hist. i.v. ID₅₀” value in series [3] is given as 0.36 mg/Kg,i.p. Also, in series [4], the “PCA % inhibition at 2.5 mg/Kg,i.p.” value is listed as 39%. The “Egg albumin bronchospasm ID₅₀” value in series [6] was 0.5-1 mg/Kg,i.p. The “Histamine bronchospasm Hist. aerosol PC₅₀ (inhal)” value in series [5] came to 0.5 mM. Moreover, the “Histamine bronchospasm Hist. aerosol PD₅₀ (oral)” value in series [5] was found to be 1 mg/kg. Further, the “Protection from death %” value in series [5] (1 puff) was determined as 80%; in series [5] (2 puffs), 100%; in series [5] (3 puffs) it was 100%. Further, the “Protection from death n/N” value in series [5] (1 puff) is reported as 4/5; in series [5] (2 puffs), 3/3; in series [5] (3 puffs) it was 3/3. The “active doses given by inhalation” value in series [5] (inhalation) was less than 0.5 mg/animal. Also, the acute oral toxicity in series [7] was 50 mg/kg.

Values taken from EP0407651A2, “Use of 1,3-diisobutyl-8-methylxanthine as a bronchodilator and antiallergy agent” (J. URIACH & CIA. S.A., priority 1989, dated 1991).
